Read-outs that look alike come from different tables or passages of the source.
Columns and labels:
[1] = tested on: Diabrotica balteata (corn root worm); assay: Diabrotica balteata (larvicide, feeding/residual contact activity, preventive), artificial diet MTP; assay type: in vivo; details: 120 h, read-out: activity (larval mortality, antifeedant, growth regulation)
Procedure: Diabrotica balteata (Corn Root Worm)
(§1) (Larvicide, Feeding/Residual Contact Activity, Preventive)
24-well microtiter plate (MTP) with artificial diet was treated with test solutions by pipetting. After drying, the MTP's were infested with larvae (L2) (6-10 per well). After an incubation period of 5 days, samples were checked for larval mortality, antifeedant and growth regulation.

[2] = tested on: Heliothis virescens (tobacco budworm); assay: Activity against Heliothis virescens (ovo-larvicide, feeding/contact activity, curative), eggs on artificial diet; assay type: in vivo; details: read-out: activity (egg mortality, larval mortality, growth regulation)
Procedure: Activity Against Heliothis virescens (Tobacco Budworm)
(Ovo-Larvicide, Feeding/Contact Activity, Curative)
Eggs (0-24 h old) were placed in 24-well microtiter plate on artificial diet and treated with test solutions by pipetting. After an incubation period of 4 days, samples were checked for egg mortality, larval mortality, and growth regulation.

[3] = tested on: Myzus persicae (green peach aphid); assay: Activity against Myzus persicae (mixed population, systemic/feeding activity, curative), pea seedling roots in test solution; assay type: in vivo; details: 144 h, read-out: activity (mortality and special effects on the plant)
Text: (§2) Activity Against Myzus persicae (Green Peach Aphid)
(Mixed Population, Systemic/Feeding Activity, Curative)
Roots of pea seedlings, infested with an aphid population of mixed ages, were placed directly in the test solutions. 6 days after introduction, samples were checked for mortality and special effects on the plant.

[4] = tested on: Spodoptera littoralis (Egyptian cotton leafworm); assay: Activity against Spodoptera littoralis (larvicide, feeding/residual contact activity, preventive), cotton leaf discs; assay type: in vivo; details: foliar, 72 h, read-out: activity (mortality, repellent effect, feeding behaviour, growth regulation)
Text: Activity Against Spodoptera littoralis (Egyptian Cotton Leafworm)
as §1
Cotton leaf discs were placed on agar in a 24-well microtiter plate and sprayed with test solutions. After drying, the leaf discs were infested with 5 L1 larvae. The samples were checked for mortality, repellent effect, feeding behaviour, and growth regulation 3 days after treatment.

[5] = tested on: Plutella xylostella (diamond back moth); assay: Plutella xylostella (larvicide, feeding/residual contact activity, preventive), artificial diet MTP; assay type: in vivo; details: 120 h, read-out: activity (larval mortality, antifeedant, growth regulation)
Procedure: Plutella xylostella (Diamond Back Moth)
as §1
24-well microtiter plate (MTP) with artificial diet was treated with test solutions by pipetting. After drying, the MTP's were infested with larvae (L2) (10-15 per well). After an incubation period of 5 days, samples were checked for larval mortality, antifeedant and growth regulation.

[6] = tested on: Nilaparvata lugens (brown rice planthopper); assay: Activity against Nilaparvata lugens (larvicide, feeding/contact), rice seedlings; assay type: in vivo; details: read-out: activity (mortality, growth regulation, effects on the F1 generation)
Procedure: Activity Against Nilaparvata lugens (Brown Rice Planthopper)
(Larvicide, Feeding/Contact)
Rice seedlings were treated with the diluted test solutions in a spray chamber. After drying, they were infested with 20 N3 nymphs (2 replicates). 6-12 days after the treatment samples were checked for mortality, growth regulation, and effects on the F, generation.

[7] = tested on: Myzus persicae (green peach aphid); assay: Activity against Myzus persicae (mixed population, feeding/residual contact activity, preventive), sunflower leaf discs; assay type: in vivo; details: foliar, 144 h, read-out: activity (mortality and special effects)
Procedure: as §2
(§3) (Mixed Population, Feeding/Residual Contact Activity, Preventive)
(§4) Sunflower leaf discs were placed on agar in a 24-well microtiter plate and sprayed with test solutions. After drying, the leaf discs were infested with an aphid population of mixed ages. After an incubation period of 6 days, samples were checked for mortality and special effects (e.g. phytotoxicity).

[8] = tested on: Thrips tabaci (onion thrips); assay: Activity against Thrips tabaci (mixed population, feeding/residual contact activity, preventive), sunflower leaf discs; assay type: in vivo; details: foliar, 144 h, read-out: activity (mortality and special effects)
Procedure: Activity Against Thrips tabaci (Onion Thrips)
as §3
as §4, with “a thrips” for “an aphid”

[9] = 400 ppm, L2 larvae on treated artificial diet, 5 days incubation
[10] = 400 ppm, eggs 0-24 h old on artificial diet, 4 days incubation
[11] = 400 ppm, L1 larvae on sprayed cotton leaf discs, 3 days after treatment
[12] = 400 ppm, N3 nymphs on sprayed rice seedlings, 6-12 days after treatment
[13] = 400 ppm, mixed-age aphids on sprayed sunflower leaf discs, 6 days incubation

melting point | Structure (SMILES) | mortality at 400 ppm [1] [%] | mortality at 400 ppm [2] [%] | mortality at 400 ppm [3] [%] | mortality at 400 ppm [4] [%] | mortality at 400 ppm [5] [%] | mortality at 400 ppm [6] [%] | mortality at 400 ppm [7] [%] | mortality at 400 ppm [8] [%] | further results
161 to 162 °C | COc1cc(C(=O)Nc2c(C)cc3cn(C(=O)OC(C)(C)C)nc3c2C(=O)NC(C)C)n(-c2ncccc2Cl)n1 |  |  |  |  |  |  |  |  | 
156 to 160 °C | COc1cc(C(=O)Nc2c(C)cc3cn(Cc4ccccn4)nc3c2C(=O)NC(C)C)n(-c2ncccc2Cl)n1 |  |  |  |  |  |  |  |  | 
66 to 70 °C | CCCCCCCCN(C)C(=O)n1cc2cc(C)c(NC(=O)c3cc(OC)nn3-c3ncccc3Cl)c(C(=O)NC(C)C)c2n1 |  |  |  |  |  |  |  |  | 
216 °C (dec.) | COc1cc(C(=O)Nc2c(C)cc3cn(-c4nc(Cl)nc(Cl)n4)nc3c2C(=O)NC(C)C)n(-c2ncccc2Cl)n1 |  |  |  |  |  |  |  |  | 
226 to 230 °C | COc1cc(C(=O)Nc2c(C)cc3cn(-c4nc(OC)nc(OC)n4)nc3c2C(=O)NC(C)C)n(-c2ncccc2Cl)n1 |  |  |  |  |  |  |  |  | 
85 to 86 °C | CCOC(=O)CSC(=O)n1cc2cc(C)c(NC(=O)c3cc(OC)nn3-c3ncccc3Cl)c(C(=O)NC(C)C)c2n1 |  |  |  |  |  |  |  |  | 
 | COCn1ncc2cc(Cl)c(NC(=O)c3cc(C(F)(F)F)nn3-c3ncccc3Cl)c(C(=O)NC(C)C)c21 [P.2] | > 80 | > 80 | > 80 | > 80 | > 80 | > 80 | > 80 | > 80 | 
 | COCCOCn1cc2cc(C)c(NC(=O)c3cc(OC)nn3-c3ncccc3Cl)c(C(=O)NC(C)C)c2n1 [P.12, 6-{[2-(3-chloro-pyridin-2-yl)-5-methoxy-2H-pyrazole-3-carbonyl]-amino}-2-(2-methoxy-ethoxymethyl)-5-methyl-2H-indazole-7-carboxylic acid isopropylamide] |  | > 80 | > 80 | > 80 | > 80 | > 80 | > 80 | > 80 | 
 | COCn1ncc2cc(C)c(NC(=O)c3cc(OC)nn3-c3ncccc3Cl)c(C(=O)NC(C)C)c21 [P.19] | > 80 | > 80 | > 80 | > 80 | > 80 | > 80 | > 80 | > 80 | 
 | CCCCCCCCCCCCCCCCOCCOCCOC(=O)n1cc2cc(C)c(NC(=O)c3cc(OC)nn3-c3ncccc3Cl)c(C(=O)NC(C)C)c2n1 [P.23] |  |  |  |  |  |  |  |  | mortality at 400 ppm [1, 9]: > 80%; mortality at 400 ppm [2, 10]: > 80%; mortality at 400 ppm [4, 11]: > 80%; mortality at 400 ppm [5, 9]: > 80%; mortality at 400 ppm [6, 12]: > 80%; mortality at 400 ppm [7, 13]: > 80%; mortality at 400 ppm ([8]; 400 ppm, mixed-age thrips on sprayed sunflower leaf discs, 6 days incubation): > 80%
 | COc1cc(C(=O)Nc2c(C)cc3cn(C(=O)C(C)(C)C)nc3c2C(=O)NC(C)C)n(-c2ncccc2Cl)n1 [P.26] | > 80 | > 80 | > 80 | > 80 | > 80 | > 80 | > 80 |  | 
 | CCCCCCCCCCCCOCCOC(=O)n1cc2cc(C)c(NC(=O)c3cc(OC)nn3-c3ncccc3Cl)c(C(=O)NC(C)C)c2n1 [P.29] |  |  |  |  |  |  |  |  | mortality at 400 ppm [1, 9]: > 80%; mortality at 400 ppm [2, 10]: > 80%; mortality at 400 ppm ([3]; 400 ppm, systemic, roots of infested pea seedlings in test solution, 6 days): > 80%; mortality at 400 ppm [4, 11]: > 80%; mortality at 400 ppm [5, 9]: > 80%; mortality at 400 ppm [6, 12]: > 80%; mortality at 400 ppm [7, 13]: > 80%
 | CCCC(C)(C)C(=O)n1cc2cc(C)c(NC(=O)c3cc(OC)nn3-c3ncccc3Cl)c(C(=O)NC(C)C)c2n1 [P.31] | > 80 | > 80 | > 80 | > 80 | > 80 | > 80 | > 80 | > 80 | 

Source: US8598078B2, “Condensed anthran I lami de derivatives as insecticides” (Syngenta Crop Protection, LLC, priority 2007, dated 2013)
